# The source made the active and inactive calls.
# Experiments:
# [1] = HepG2 cell cytotoxicity, dose response, cytotoxicity control, ATP luminescence, cherry-pick, activator set 2 (AID 1053143); format: functional, cell-based
# [2] = target: T1, Heat shock factor protein 1 (Mus musculus, UniProt P38532); test: HSF1 potentiators in luciferase reporter cells, confirmation, cell-based, NIH3T3, luminescence, dose retest (AID 435004); format: functional;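 further: stress induced by proteasome inhibitor MG132 added 30 min after compound; luciferase reporter driven by HSF1 response element in NIH3T3 cells; actives raise luminescence as potentiators of the MG132 stress response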
# T1 sequence (P38532 whole entry): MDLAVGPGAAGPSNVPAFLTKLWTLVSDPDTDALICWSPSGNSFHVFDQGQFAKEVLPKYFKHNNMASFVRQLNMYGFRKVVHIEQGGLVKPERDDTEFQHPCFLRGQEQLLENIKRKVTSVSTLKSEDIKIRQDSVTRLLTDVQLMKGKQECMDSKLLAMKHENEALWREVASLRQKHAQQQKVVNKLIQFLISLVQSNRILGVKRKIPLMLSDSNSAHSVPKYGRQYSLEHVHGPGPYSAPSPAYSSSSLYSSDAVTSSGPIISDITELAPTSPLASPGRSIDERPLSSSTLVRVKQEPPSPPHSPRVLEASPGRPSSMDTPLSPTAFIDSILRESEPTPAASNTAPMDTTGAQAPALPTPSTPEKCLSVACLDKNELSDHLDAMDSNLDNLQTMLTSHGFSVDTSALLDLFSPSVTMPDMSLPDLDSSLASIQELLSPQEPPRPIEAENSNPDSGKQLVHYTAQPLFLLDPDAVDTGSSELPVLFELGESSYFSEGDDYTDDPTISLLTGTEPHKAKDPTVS
# [3] = target: T2, Streptokinase A (Streptococcus pyogenes serotype M1, UniProt P10520); test: S. pyogenes streptokinase expression inhibitors, potency, dose response, plasminogen activation absorbance, OD405 (AID 1914); format: functional, Streptococcus pyogenes M1 GAS;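 further: secreted streptokinase activity via plasminogen activation per viability signal from cell pellet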
# T2 sequence (P10520 whole entry): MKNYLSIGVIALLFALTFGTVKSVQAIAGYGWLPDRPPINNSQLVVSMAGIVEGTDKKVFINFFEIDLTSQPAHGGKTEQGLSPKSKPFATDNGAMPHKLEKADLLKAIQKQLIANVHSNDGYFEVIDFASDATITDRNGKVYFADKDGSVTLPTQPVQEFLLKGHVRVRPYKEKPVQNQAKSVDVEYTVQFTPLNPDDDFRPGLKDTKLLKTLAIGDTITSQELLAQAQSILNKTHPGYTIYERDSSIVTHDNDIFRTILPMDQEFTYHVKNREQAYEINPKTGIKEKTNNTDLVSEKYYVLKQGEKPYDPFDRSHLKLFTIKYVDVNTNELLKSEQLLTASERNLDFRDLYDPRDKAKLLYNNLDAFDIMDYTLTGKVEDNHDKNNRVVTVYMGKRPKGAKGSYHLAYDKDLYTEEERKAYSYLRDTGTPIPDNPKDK
# [4] = system: Streptococcus; test: Group A Streptococcus viability loss, dose response, counter-screen for streptokinase expression inhibitor project, luminescence, BacTiterGlo (AID 1915); format: functional, organism-based;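 further: potency for reduction of bacterial viability or growth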
# [5] = inhibitors of PGC1a acetylation in cells, dose response, cell-based, cherry-picked samples (AID 720514); format: functional;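 further: potency may reflect raised or lowered acetylation signal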
# [6] = target: Photoreceptor-specific nuclear receptor (Homo sapiens, UniProt Q9Y5X4); format: functional, cell-based;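 further: CHO-S cells with Gal4-NCOR and VP16-NR2E3 two-hybrid luciferase reporter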
# Sequence of Photoreceptor-specific nuclear receptor (Q9Y5X4 whole entry, the tested form may be a part): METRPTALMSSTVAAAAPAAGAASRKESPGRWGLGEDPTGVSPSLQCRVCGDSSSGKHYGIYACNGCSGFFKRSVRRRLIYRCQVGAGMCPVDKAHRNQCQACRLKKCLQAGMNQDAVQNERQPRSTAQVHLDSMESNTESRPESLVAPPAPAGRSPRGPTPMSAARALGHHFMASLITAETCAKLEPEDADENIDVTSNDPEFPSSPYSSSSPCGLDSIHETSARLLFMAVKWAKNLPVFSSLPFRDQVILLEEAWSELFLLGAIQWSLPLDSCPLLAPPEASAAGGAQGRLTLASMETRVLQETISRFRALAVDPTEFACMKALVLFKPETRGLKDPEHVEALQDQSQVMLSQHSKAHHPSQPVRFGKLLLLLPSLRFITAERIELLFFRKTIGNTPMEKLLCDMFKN
# [7] = system: CHO; test: cytotoxicity in TLR9-MyD88 CHO cells, dose response, cytotoxicity control for TLR9-MyD88 binding inhibitor project, cell-based, luminescence (AID 588339); format: functional, hamster; conditions: Cricetulus griseus;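 further: CHO cells stably coexpressing TLR9 and MyD88 fusions from primary screen; compound exposure lasted 48 hours before viability readout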
# [8] = target: Beta Lactamase (Pseudomonas aeruginosa, UniProt Q932Y6); test: beta-lactamase reporter inhibitor potency, dose response, artefact control for TLR9-MyD88 binding inhibitor project, BLA reporter cells, FRET fluorescence (AID 588341); format: cell-based;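 further: cell based assay in CHO-K1 cells stably expressing beta-lactamase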
# Sequence of Beta Lactamase (Q932Y6 whole entry): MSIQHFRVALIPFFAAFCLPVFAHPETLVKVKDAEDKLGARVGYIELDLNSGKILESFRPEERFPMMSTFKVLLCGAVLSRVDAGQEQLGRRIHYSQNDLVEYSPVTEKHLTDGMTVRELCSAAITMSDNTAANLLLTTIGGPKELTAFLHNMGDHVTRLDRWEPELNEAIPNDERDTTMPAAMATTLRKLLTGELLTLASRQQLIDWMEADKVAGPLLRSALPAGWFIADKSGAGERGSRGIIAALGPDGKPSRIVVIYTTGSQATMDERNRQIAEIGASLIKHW
# [9] = Late stage assay provider counterscreen for TLR9 inhibitors: absorbance-based cell-based MTT cytotoxicity assay.; format: functional
# [10] = system: HEK293; test: HEK293T cell cytotoxicity, dose response, cytotoxicity control, ATP luminescence, cherry-pick samples (AID 687005); format: functional, cell-based; conditions: Homo sapiens;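 further: cells exposed to compound for 48 hours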
# [11] = HEK293 Cytotoxicity Assay Measured in Cell-Based System Using Plate Reader - 7071-01_Inhibitor_Dose_CherryPick_Activity_Set2.; format: functional
# [12] = target: Potassium channel subfamily K member 9 (Homo sapiens, UniProt Q9NPC2); test: TASK3 (KCNK9) channel inhibitors, thallium flux, SAR follow-up, selectivity assay for TASK1 inhibitor project, cell-based, FluxOR thallium flux, concentration-response (AID 652211); format: functional;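 further: potency is for inhibitors of the channel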
# Sequence of Potassium channel subfamily K member 9 (Q9NPC2 whole entry): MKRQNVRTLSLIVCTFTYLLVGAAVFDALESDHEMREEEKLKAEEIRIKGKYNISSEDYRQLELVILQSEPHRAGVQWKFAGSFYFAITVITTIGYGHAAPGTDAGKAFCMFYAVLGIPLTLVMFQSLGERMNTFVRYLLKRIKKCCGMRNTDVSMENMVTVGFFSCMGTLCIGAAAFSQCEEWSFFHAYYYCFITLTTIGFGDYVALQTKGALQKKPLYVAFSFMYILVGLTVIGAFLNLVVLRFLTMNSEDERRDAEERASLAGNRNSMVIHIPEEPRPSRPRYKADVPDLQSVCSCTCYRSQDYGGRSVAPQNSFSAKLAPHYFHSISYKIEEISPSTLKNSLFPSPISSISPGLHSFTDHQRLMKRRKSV
# [13] = target: Potassium channel subfamily K member 3 (Homo sapiens, UniProt O14649); test: TASK1 (KCNK3) potassium channel inhibitors, SAR follow-up, CHO cells, FluxOR thallium flux (AID 652212); format: functional
# Sequence of Potassium channel subfamily K member 3 (O14649 whole entry): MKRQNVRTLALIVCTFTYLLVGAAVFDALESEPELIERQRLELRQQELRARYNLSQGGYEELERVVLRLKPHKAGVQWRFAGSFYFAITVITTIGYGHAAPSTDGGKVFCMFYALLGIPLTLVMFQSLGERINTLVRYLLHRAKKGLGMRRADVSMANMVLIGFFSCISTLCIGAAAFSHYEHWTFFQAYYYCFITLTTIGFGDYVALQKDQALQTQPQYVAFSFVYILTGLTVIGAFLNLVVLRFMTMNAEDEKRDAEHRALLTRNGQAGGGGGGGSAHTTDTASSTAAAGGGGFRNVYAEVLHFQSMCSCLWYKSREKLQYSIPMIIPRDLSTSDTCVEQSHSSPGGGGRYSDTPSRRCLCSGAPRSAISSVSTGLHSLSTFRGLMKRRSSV
# [14] = Late stage assay provider results from the probe development effort to identify selective inhibitors of heat shock protein 90 (HSP90): Absorbance-based cell proliferation assay in MCF7 cells.; format: functional
# [15] = Late stage assay provider results from the probe development effort to identify selective inhibitors of heat shock protein 90 (HSP90): Absorbance-based cell proliferation assay in SKBR3 cells.; format: functional; conditions: SK-BR-3
# [16] = cytotoxicity dependent on PAX8, dose response, cell-based, plate reader, dry powder (AID 743049); format: functional
# [17] = cytotoxicity in OVCAR4 cells, dose response, cytotoxicity control for PAX8 inhibitor project, cell-based, plate reader, dry powder, SA11 (AID 743150); format: functional; conditions: OVCAR-4
# [18] = PAX5 activity inhibitors, dose response, selectivity assay for PAX8 inhibitor project, cell-based, plate reader, dry powder samples (AID 743047); format: functional;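 further: HEK293 cells carrying a Pax5 driven CD19 promoter luciferase reporter; potency of inhibitors that lower reporter luminescence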
# [19] = cytotoxicity in COV362 ovarian cancer cells, dose response, cytotoxicity control for PAX8 inhibitor project, cell-based, plate reader, dry powder, SA12 (AID 743144); format: functional
# [20] = PAX2 cell-based inhibition, dose response, selectivity assay for PAX8 inhibitor project, plate reader, dry powder samples (AID 743048); format: functional;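 further: HEK293 cells carrying a WT1 promoter luciferase reporter driven by expressed Pax2; potency is for inhibition of Pax2 driven reporter signal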
# [21] = cytotoxicity in COV434 cells, dose response, cytotoxicity control for PAX8 inhibitor project, cell-based, plate reader, dry powder, SA7 (AID 743145); format: functional
# [22] = NIH:OVCAR-3 ovarian cancer cell cytotoxicity, dose response, PAX8 inhibitor project, plate reader, dry powder samples (AID 743044); format: functional, cell-based
# [23] = cytotoxicity in OV-90 ovarian cancer cells, dose response, PAX8 inhibitor project, cell-based, plate reader, dry powder, SA8 (AID 743149); format: functional
# [24] = IOSE-T80 ovarian epithelial cell cytotoxicity, dose response, cytotoxicity control for PAX8 inhibitor project, plate reader, dry powder samples (AID 743045); format: functional, cell-based
# [25] = IGROV1 ovarian cancer cell cytotoxicity, dose response, PAX8 inhibitor project, plate reader, dry powder samples (AID 743043); format: functional, cell-based; conditions: IGROV-1
smiles,measurement,setting,value
Cn1nnc(-c2ccc(OCc3ccccc3F)cc2)n1,AC50,[1],26 µM (active)
same,EC50,[2],> 260 µM (inactive)
same,EC50,[3],> 150 µM (not active)
same,EC50,[4],> 150 µM (not active)
COc1ccc(C[C@@H]2OC3(C=CC(=O)C=C3)O[C@H]2Cc2ccc(OC)cc2)cc1,AC50,[5],0.756 µM (active)
same,IC50,[6],0.149 µM (active)
same,IC50,[7],0.597 µM (active)
same,IC50,[8],17.5 µM (inactive)
same,CC50,[9],0.48 µM (active)
COc1ccc(NC(=O)Nc2ccc3c(c2)C(=O)N([C@H](C)CO)C[C@H](C)[C@H](CN(C)C(=O)Cc2ccccc2)OCCCC[C@H](C)O3)cc1,AC50,[10],25.4 µM (active)
same,AC50,[11],25.4 µM (active)
CCOc1ccccc1NC(=O)c1cccc(NC(=O)c2cccc(C(F)(F)F)c2)c1,IC50,[12],1.38 µM (active)
same,IC50,[13],0.232 µM (active)
COc1c[nH]c(C(=O)Nc2ccc(C(C)C)cc2)cc1=O,IC50,[14],> 100 µM (inactive)
same,IC50,[15],> 100 µM (inactive)
N#C[C@@H]1[C@@H](c2ccc(C#Cc3ccccc3F)cc2)[C@@H](CO)N1C(=O)C1CCCC1,AC50,[16],11.9 µM (active)
same,AC50,[17],44.3 µM (active)
same,AC50,[18],18.1 µM (active)
same,AC50,[19],48.5 µM (active)
same,AC50,[20],16.5 µM (active)
same,AC50,[21],10.9 µM (active)
same,AC50,[22],29.7 µM (active)
same,AC50,[23],35.3 µM (active)
same,AC50,[24],27 µM (active)
same,AC50,[25],47.3 µM (active)

# Source: ChEMBL document CHEMBL1201862, “PubChem BioAssay data set” (2004)
